Data as given in patent US6830893B2 (priority 1999, dated 2004).
“Also recorded” adds a separate entry of the source. Where two headings read alike, the source gives them in different places.

Key:
neutrophils = assay: Calcium mobilization (Fura-2) in human neutrophils; format: cell-based
FPRL1 [1] = biological target: T1, FPRL1 (Homo sapiens, UniProt P25090); format: cell-based
T1 construct: expressed in transfected cells; host or cells: human embryonic kidney (HEK) 293 cells, designated FPRL1/293
T1 sequence (P25090 1-351): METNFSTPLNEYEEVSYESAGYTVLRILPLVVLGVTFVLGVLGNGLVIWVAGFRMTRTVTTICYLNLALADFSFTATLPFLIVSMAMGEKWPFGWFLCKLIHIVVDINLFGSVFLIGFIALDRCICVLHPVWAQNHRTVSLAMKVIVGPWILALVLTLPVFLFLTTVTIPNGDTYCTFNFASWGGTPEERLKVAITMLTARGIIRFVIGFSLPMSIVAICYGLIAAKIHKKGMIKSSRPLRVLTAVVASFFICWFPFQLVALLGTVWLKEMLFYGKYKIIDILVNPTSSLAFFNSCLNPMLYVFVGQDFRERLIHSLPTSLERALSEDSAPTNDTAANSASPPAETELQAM
Method: (Prossnitz and Ye, Pharmacol. Ther. 74: 73 (1997); Murphy, The N-formyl peptide chemotactic receptors, Chemoattractant ligands and their receptors. CRC Press, Boca Raton, p. 269 (1996); and Gao and M. Murphy, J. Biol. Chem. 268: 25395 (1993)).
(§1) Calcium mobilization was assayed by incubating 107/ml of monocytes, neutrophils, FPRL1 or ETFR transfectants in loading buffer containing 138 mM NaCl, 6 mM KCl, 1 mM CaCl2, 10 mM HEPES (pH 7.4), 5 mM glucose, 0.1% BSA with 5 μM Fura-2 (Sigma) at 37° C. for 30 min. The dye-loaded cells were washed and resuspended in fresh loading buffer. The cells were then transferred into quartz cuvettes ([…] in 2 ml) which were placed in a luminescence spectrometer LS50 B (Perkin-Elmer Limited, Beaconsfield, England). Stimulants at different concentrations were added in a volume of 20 μl to the cuvettes at indicated time points. The ratio of fluorescence at 340 and 380 nm wavelength was calculated using the FL WinLab program (Perkin Elmer).

FPRL1 [2] = biological target: T1, FPRL1; assay: Chemotaxis of FPRL1/293 cells; format: cell-based; conditions: for migration / chemotaxis of FPRL1/293 cells: wide range of concentrations
Method: The chemotactic response of cells transfected with a nucleic acid encoding FPR or FPRL1 was tested as another sensitive parameter to assess the receptor targets of T21/DP107. (Gong et al., J. Biol. Chem. 273: 4289 (1998); Gong et al., J. Biol. Chem. 272:11682 (1997); and Ben-Baruch et al., J. Biol. Chem. 270: 22123 (1995)). Accordingly, different concentrations of T21/DP107 were placed in the lower wells of a chemotaxis chamber and a cell suspension was placed in the upper wells. The upper and lower wells were separated by polycarbonate filters precoated with mouse collagen type I. After incubation, the cells that migrated across the filters were stained and counted. […] The CI (chemotaxis index), which represents the fold increase of leukocyte migration in response to T21/DP107 over control medium, was also determined. […] (FIG. 9B).
Leukocytes, ETFR and FPRL1/293 cell migration was assessed using a 48-well microchemotaxis chamber technique as previously described. (Gong et al., J. Biol. Chem. 273: 4289 (1998); Gong et al., J. Biol. Chem. 272: 11682 (1997); and Kliger et al., J. Biol. Chem. 272: 13496 (1997)). Different concentrations of stimulants were placed in wells of the lower compartment of the chamber (Neuro Probe, Cabin John, Mass.), the cell suspension was seeded in wells of the upper compartment which was separated from the lower compartment by a polycarbonate filter (Osmonics, Livermore, Calif.; 5 μm-pore size for leukocytes, 10 μm pore-size for ETFR and FPRL1/293 cells). For CD3+ T lymphocytes, the filters were precoated with 20 μg/ml bovine fibronectin (Sigma). The filters for ETFR and FPRL1/293 cell migration were precoated with 50 μg/ml collagen type I (Collaborative Biomedical products, Bedford, Mass.) to favor the attachment of the cells. After incubation at 37° C. (90 min for monocytes, 60 min for neutrophils, 180 min for T cells and 300 min for ETFR or FPRL1/293 cells), the filters were removed, stained and the cells migrating across the filter were counted by light microscopy after coding the samples. […] The significance of the increase in cell migration was determined using Student's t test and CI≧2 was statistically significant compared to medium control (at least p<0.05).

human monocytes = assay: Calcium mobilization (Fura-2) in human monocytes; format: cell-based
[3] = test system: mock-transfected parental cells; assay: Calcium mobilization in parental or mock-transfected rat basophil cell line; format: cell-based; conditions: rat basophil cell line without FPR
Method: as §1, with “neutrophils” for “neutrophils, FPRL1”, “cells” for “transfectants”, “transfered” for “transferred”

HEK 293 cells = assay: Calcium mobilization in parental or mock transfected HEK 293 cells; format: cell-based, human; conditions: control experiments
Method: (FIGS. 8C1, 8C2, 8F1, and 8F2).
as §1

human neutrophils = format: cell-based
[4] = test system: human peripheral blood monocytes; format: cell-based
mock-transfected cells = assay: Chemotaxis of mock-transfected cells; format: cell-based, rat; conditions: FIG. 3E
HIV-1 = conditions: T lymphocyte tropic and monocyte tropic HIV-1; Lawless et al. 1996; cited from earlier work
[5] = monocytes, pertussis toxin at 100 ng/ml for 30 min at 37° C. (FIG. 1B)
[6] = monocytes, pertussis toxin at 100 ng/ml for 30 min at 37° C. (FIG. 6B)

CCCCC[C@H](O)/C=C/C=C\C=C\C=C\[C@@H](O)[C@@H](O)CCCC(=O)O [LXA4, lipoxin A4]
inhibition of T21/DP107 signaling (neutrophils; phagocytes (neutrophils), commercially available LXA4 (Biomol)): nor did we observe inhibition
induction of Ca++ mobilization in FPRL1 expressing cells (FPRL1 [1]; FPRL1/293 cells): did not detect significant induction
inhibition of T21/DP107 signaling (FPRL1 [1]; FPRL1/293 cells, commercially available LXA4 (Biomol)): nor did we observe inhibition
induction of Ca++ mobilization in FPRL1 expressing cells (FPRL1 [1]; FPRL1/293 cells, listed as lipoxin A4): not able to induce
migration / chemotaxis of FPRL1/293 cells (FPRL1 [2]): did not detect significant induction
migration / chemotaxis of FPRL1/293 cells (FPRL1 [2]; listed as lipoxin A4): not able to induce
inhibition of T21/DP107 signaling (human monocytes; phagocytes (monocytes), commercially available LXA4 (Biomol)): nor did we observe inhibition

CSCC[C@H](NC=O)C(=O)N[C@@H](CC(C)C)C(=O)N[C@@H](Cc1ccccc1)C(=O)O [fMLP, N-formyl-methionyl-leucyl-phenylalanine]
desensitizing effect on T20/DP178-induced Ca++ mobilization (neutrophils; neutrophils, fMLP 100 nM, T20/DP178 100 nM): desensitizes; also recorded: marked desensitizing effect
desensitizing effect on T21/DP107-induced Ca++ mobilization (neutrophils; neutrophils, high concentrations (≧1 μM) of fMLP, T21/DP107 1 μM): desensitizes; also recorded: partial desensitizing effect
desensitization of T21/DP107-induced Ca++ mobilization (FPRL1 [1]): desensitizes
minimal effective concentration to induce Ca++ mobilization (FPRL1 [1]): low μM range
migration / chemotaxis of FPRL1 expressing cells (FPRL1 [2]; at concentrations as high as 50 μM (5×10−5 M)): does not induce significant chemotaxis; also recorded: failed to induce significant migration
migration / chemotaxis of FPRL1/293 cells (FPRL1 [2]): failed to migrate
Ca++ flux in parental or mock-transfected cells [3]: Neither peptide stimulated; also recorded: did not induce any
Ca++ mobilization in parental or mock transfected HEK 293 cells (HEK 293 cells): did not induce any
migration across the filters (microscopy at 200× magnification) (human neutrophils): significant migration
desensitizing effect on T20/DP178-induced Ca++ mobilization (human monocytes; monocytes, fMLP 100 nM, T20/DP178 100 nM): desensitizes; also recorded: marked desensitizing effect
desensitizing effect on T21/DP107-induced Ca++ mobilization (human monocytes; monocytes, high concentrations (≧1 μM) of fMLP, T21/DP107 1 μM): desensitizes; also recorded: partial desensitizing effect
migration across the filters (microscopy at 200× magnification) ([4]; monocytes, 100 nM): significant migration
migration of mock-transfected cells (mock-transfected cells): did not induce migration

CO[C@H]1[C@@H](OC)C[C@H](C)[C@@H](OC)C2=CC(=O)C=C(NC(=O)/C(C)=C/C=C\[C@H](OC)[C@@H](OC(N)=O)/C(C)=C/[C@@H]1C)C2=O [herbimycin A]
inhibition of T20/DP178-induced migration by pretreatment of the cells (human neutrophils; neutrophils): not
inhibition of T21/DP107-induced migration by pretreatment of the cells (human neutrophils; neutrophils): not
inhibition of T20/DP178-induced migration by pretreatment of the cells [4, 5]: not
inhibition of T21/DP107-induced migration by pretreatment of the cells [4, 6]: not

QNQQEKNEQELLELDKWASLWNWF [T914]
anti-HIV-1 fusion activity (HIV-1): ineffective

cholera toxin
inhibition of T20/DP178-induced migration by pretreatment of the cells (human neutrophils): not
inhibition of T21/DP107-induced migration by pretreatment of the cells (human neutrophils): not
inhibition of T20/DP178-induced migration by pretreatment of the cells [4]: not
inhibition of T21/DP107-induced migration by pretreatment of the cells [4]: not

pertussis toxin
inhibition of T20/DP178-induced migration by pretreatment of the cells (human neutrophils; neutrophils): completely inhibited
inhibition of T21/DP107-induced migration by pretreatment of the cells (human neutrophils; neutrophils): completely inhibited
inhibition of T20/DP178-induced migration by pretreatment of the cells [4, 5]: completely inhibited
inhibition of T21/DP107-induced migration by pretreatment of the cells [4, 6]: inhibition; also recorded: completely inhibited
